Experimental data: ChEMBL document CHEMBL3885861, “Open TG-GATES”

Species on record: Rattus norvegicus
Assay: Open TG-GATES - Regimen: Daily Repeat
Type: toxicity, organism-based, Sprague-Dawley
Design: regimen Daily Repeat, gender Male, age 6 weeks
Settings: in vivo, po, 15 mg/kg, route gavage, dose level Low; for APTT / Bas / Eos / Fbg / Hb / Ht / Lym / MCH / MCHC / MCV / Mono / Neu / PT / Plat / RBC / Ret / WBC: tissue Blood
[1] = 72 h, tissue Kidney, time 3 day
[2] = 72 h, tissue Plasma, time 3 day

Work on `Nc1nc(N)c2nc(-c3ccccc3)c(N)nc2n1` yielded a TERMINAL_BW (72 h, time 3 day) of 248.4 g, an APTT (72 h, time 3 day) of 16.1 s and a Bas (72 h, time 3 day) of 0.2%. The Eos (72 h, time 3 day) was 0.6%, the Fbg (72 h, time 3 day) was 310.8 mg/dL and the Hb (72 h, time 3 day) was 14.1 g/dL. It also gave a Ht (72 h, time 3 day) of 41.7%, a Lym (72 h, time 3 day) of 78.4% and an MCH (72 h, time 3 day) of 21.8 pg. The MCHC (72 h, time 3 day) was 33.8%, the MCV (72 h, time 3 day) was 64.7 fL and the Mono (72 h, time 3 day) was 2.2%. For the same compound, the Neu (72 h, time 3 day) was 18.2%, the PT (72 h, time 3 day) was 13.8 s and the Plat (72 h, time 3 day) was 132.9 x10_4/uL. It also gave an RBC (72 h, time 3 day) of 645.4 x10_4/ul, a Ret (72 h, time 3 day) of 6.8% and a WBC (72 h, time 3 day) of 109.4 x10_2/uL. It also gave a KIDNEY_L [1] of 1.1 g, a KIDNEY_R [1] of 1 g and a KIDNEY_TOTAL [1] of 2.1 g. It also gave an LIVER (72 h, tissue Liver, time 3 day) of 11.6 g, an A/G [2] of 0.9 and an ALP [2] of 1861.8 IU/L. For the same compound, the ALT [2] was 41.4 IU/L, the AST [2] was 66 IU/L and the BUN [2] was 14.8 mg/dL. The CRE [2] was 0.2 mg/dL, the Ca [2] was 11 mg/dL and the Cl [2] was 105.4 meq/L. For the same compound, the DBIL [2] was 0.01 mg/dL, the GLC [2] was 175.2 mg/dL and the IP [2] was 7.8 mg/dL. It also gave a K [2] of 3.8 meq/L, an LDH [2] of 67.2 IU/L and a Na [2] of 142.8 meq/L. It also gave a PL [2] of 159.4 mg/dL, an RALB [2] of 2.6 g/dL and a TBIL [2] of 0.042 mg/dL. It also gave a TC [2] of 81.4 mg/dL, a TG [2] of 115 mg/dL and a TP [2] of 5.6 g/dL. The gamma-GTP [2] was 1.2 IU/L, the TERMINAL_BW ([…], time 7 day) was 282.4 g and the TERMINAL_BW ([…], time 14 day) was 340.6 g. For the same compound, the TERMINAL_BW ([…], time 28 day) was 410.6 g, the APTT ([…], time 7 day) was 16.7 s and the Bas ([…], time 7 day) was 0%. It also gave an Eos ([…], time 7 day) of 1%, a Fbg ([…], time 7 day) of 313.2 mg/dL and a Hb ([…], time 7 day) of 13.7 g/dL. The Ht ([…], time 7 day) was 42.1%, the Lym ([…], time 7 day) was 77.2% and the MCH ([…], time 7 day) was 20.1 pg. It also gave an MCHC ([…], time 7 day) of 32.4%, an MCV ([…], time 7 day) of 61.9 fL and a Mono ([…], time 7 day) of 2.4%. It also gave a Neu ([…], time 7 day) of 19.2%, a PT ([…], time 7 day) of 13.9 s and a Plat ([…], time 7 day) of 123.2 x10_4/uL. For the same compound, the RBC ([…], time 7 day) was 679.2 x10_4/ul, the Ret ([…], time 7 day) was 5.5% and the WBC ([…], time 7 day) was 88.7 x10_2/uL. The APTT ([…], time 14 day) was 18 s, the Bas ([…], time 14 day) was 0% and the Eos ([…], time 14 day) was 1%. It also gave a Fbg ([…], time 14 day) of 295.2 mg/dL, a Hb ([…], time 14 day) of 14.5 g/dL and a Ht ([…], time 14 day) of 44.4%. For the same compound, the Lym ([…], time 14 day) was 79.2%, the MCH ([…], time 14 day) was 20.2 pg and the MCHC ([…], time 14 day) was 32.7%. For the same compound, the MCV ([…], time 14 day) was 61.6 fL, the Mono ([…], time 14 day) was 2.2% and the Neu ([…], time 14 day) was 17.2%. It also gave a PT ([…], time 14 day) of 13.1 s, a Plat ([…], time 14 day) of 114.4 x10_4/uL and an RBC ([…], time 14 day) of 720.6 x10_4/ul. The Ret ([…], time 14 day) was 4.2%, the WBC ([…], time 14 day) was 94.6 x10_2/uL and the APTT ([…], time 28 day) was 18.6 s. For the same compound, the Bas ([…], time 28 day) was 0.2%, the Eos ([…], time 28 day) was 1.2% and the Fbg ([…], time 28 day) was 294.8 mg/dL. It also gave a Hb ([…], time 28 day) of 15.6 g/dL and a Ht ([…], time 28 day) of 46.4%.
